From patent US20250154112A1, “A PREPARATION OF QUINAZOLINEDIONES AND USE THEREOF” (COUNCIL OF SCIENTIFIC AND INDUSTRIAL RESEARCH AN INDIAN …, priority 2021, published 2025) come the findings set out here.

The test system of one assay is ATGL. The experiment in a line: In vivo study, Western blot of ATGL in mice liver and adipose tissue. The conditions noted are these: 80 mg/kg orally, 9 days. Details: species or system C57BL/6 mice. The protocol: (§1) 6-8 weeks old healthy male C57BL/6 mice (average weight: 28 grams) were taken for the study. These were then divided into two groups comprising of three mice per group (Control, compound 62). Mice were fed with 80 mg/kg of compound 62 orally. The compound was dissolved in 10% EtOH, 40% PEG, 20% PG, 30% NaCl solution (0.9%). The control group was fed only with the solvent in which the compound was dissolved. Post 9 days of one-time feeding mice were sacrificed and a portion of the excised liver tissue and adipose was homogenized in lysis buffer containing protease inhibitor cocktail. The homogenate was centrifuged at 20,000 g for 30 minutes following which the supernatant containing the protein lysate was collected. The lysate was then diluted accordingly, and protein estimation was carried out by Bradford Assay. This was followed by Western Blotting wherein the levels of ATGL and COP1 were checked. Actin was used as the loading control.

Assay [1] can be described thus: Determination of EC50 (in-vitro).
The target in a further assay is T1, COP1 (Mus musculus, UniProt Q9R1A8).
T1 construct: from tissue; host or cells: liver and adipose tissue of C57BL/6 mice
T1 sequence (Q9R1A8 whole entry): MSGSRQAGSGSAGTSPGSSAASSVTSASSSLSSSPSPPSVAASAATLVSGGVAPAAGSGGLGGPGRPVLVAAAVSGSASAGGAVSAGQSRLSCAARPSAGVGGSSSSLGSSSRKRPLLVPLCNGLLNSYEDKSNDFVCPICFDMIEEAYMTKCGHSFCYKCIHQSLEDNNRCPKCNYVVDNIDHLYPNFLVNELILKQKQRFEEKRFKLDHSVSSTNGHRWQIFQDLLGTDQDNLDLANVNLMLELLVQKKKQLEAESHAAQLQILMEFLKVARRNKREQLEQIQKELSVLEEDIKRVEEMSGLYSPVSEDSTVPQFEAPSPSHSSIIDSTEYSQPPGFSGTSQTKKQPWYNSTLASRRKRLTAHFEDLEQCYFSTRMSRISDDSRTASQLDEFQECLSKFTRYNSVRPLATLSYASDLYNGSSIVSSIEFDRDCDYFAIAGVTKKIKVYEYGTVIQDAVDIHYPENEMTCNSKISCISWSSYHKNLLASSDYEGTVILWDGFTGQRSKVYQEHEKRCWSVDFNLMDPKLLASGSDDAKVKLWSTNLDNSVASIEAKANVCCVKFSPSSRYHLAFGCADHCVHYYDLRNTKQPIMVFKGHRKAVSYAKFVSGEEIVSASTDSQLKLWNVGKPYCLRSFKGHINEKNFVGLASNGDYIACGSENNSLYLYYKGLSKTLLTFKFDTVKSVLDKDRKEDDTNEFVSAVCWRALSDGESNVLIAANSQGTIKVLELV
In words: In vivo study, Western blot of COP1 in mice liver and adipose tissue. Details: species or system C57BL/6 mice. Conditions: 80 mg/kg orally, 9 days. As to the method: as §1

The test system of assay [2] is C57BL/6 mice fed with high fat diet (HFD). In words: HFD induced fatty liver disease model. In kind it is in vivo. Conditions: HFD 12 weeks, 80 mg/kg orally for the last 4 weeks. As to the method:
A preclinical therapeutic model was developed where C57BL/6 mice were fed with 60% kcal high fat diet (HFD) for 12 weeks, and for the last 4 weeks the mice were orally fed with the compound 62 at 80 mg/kg body weight dose.

The structures appear in SMILES notation.

Take `COCCn1c(=O)c2cc(NC(=O)Nc3cccc(C(C)=O)c3)ccc2n(CCN2CCCCC2)c1=O` [Compound 62, 1-(3-acetylphenyl)-3-(3-(2-methoxyethyl)-2,4-dioxo-1-(2-(piperidin-1-yl)ethyl)-1,2,3,4-tetrahydroquinazolin-6-yl)urea]: in the assay with ATGL, the “ATGL levels in liver and adipose lysates” value was “effective in increasing ATGL and COP1 levels”. The same compound displayed an EC50 in assay [1] of 0.0457 µM. Further, on COP1, the “COP1 levels in liver and adipose lysates” value was “effective in increasing ATGL and COP1 levels”. Besides, in assay [2], the body weight entry is “Reductions”, the hepatic fibrogenesis entry is “improvement in hepatic fibrogenesis”, the “hepatic lipid droplets (FIG. 7A)” value is recorded as “considerable depletion of hepatic lipid droplets” and the liver triglyceride content entry is given as “Reductions”. Moreover, in assay [2], the serum cholesterol level entry is listed as “Reductions” and the total liver weight entry is reported as “Reductions”.
